Assay results published in patent publication US8546579B2, “Bicycloheteroaryl compounds as P2X7 modulators and uses thereof” (Evotec (US) Inc., priority 2006, dated 2013).

Target: T1, P2X7 receptor (Homo sapiens, UniProt Q99572)
T1 construct: host or cells: THP-1 cells differentiated with LPS and IFN-γ
T1 sequence (Q99572 1-595): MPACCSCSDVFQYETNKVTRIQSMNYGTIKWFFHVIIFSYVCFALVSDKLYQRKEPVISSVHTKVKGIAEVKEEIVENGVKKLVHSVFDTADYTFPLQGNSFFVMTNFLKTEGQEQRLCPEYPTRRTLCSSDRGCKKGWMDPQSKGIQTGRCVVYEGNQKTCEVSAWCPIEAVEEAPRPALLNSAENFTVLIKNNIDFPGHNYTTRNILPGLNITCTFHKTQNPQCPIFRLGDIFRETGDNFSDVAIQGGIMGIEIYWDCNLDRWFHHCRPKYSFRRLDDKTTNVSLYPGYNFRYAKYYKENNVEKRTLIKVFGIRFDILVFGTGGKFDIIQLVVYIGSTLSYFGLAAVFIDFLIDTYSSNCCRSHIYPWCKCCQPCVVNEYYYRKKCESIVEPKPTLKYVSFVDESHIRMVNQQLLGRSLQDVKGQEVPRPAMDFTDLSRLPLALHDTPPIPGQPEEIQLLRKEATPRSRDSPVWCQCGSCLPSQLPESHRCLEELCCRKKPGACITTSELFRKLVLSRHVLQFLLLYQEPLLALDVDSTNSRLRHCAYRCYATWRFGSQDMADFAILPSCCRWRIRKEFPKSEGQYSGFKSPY
Experiment: IL-1β release assay in differentiated THP-1 cells stimulated with BzATP (Example 9)
Format: cell-based
Set-up: inhibition: dose or concentration left out as unconfirmed
Settings: THP-1; read-out: IL-1β % Inhib.
Procedure, shortened: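 IC50 derived by four-parameter logistic fit of percent inhibition of IL-1β release, measured by ELISA after 45 min stimulation with 250 uM BzATP. Cells: THP-1 differentiated 16 h with 100 ng/mL LPS plus IFN-γ, LPS-primed 2 h, compound added 30 min beforehand.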

| Compound | inhibition [%] |
| --- | --- |
| COc1ccc(C(=O)Nc2cccc3c(=O)n(CC(C)(C)C)ccc23)cc1C [Compound 1418] | 0 to 25 |
| Cc1ccccc1C(=O)Nc1cccc2c(=O)n(C)ccc12 [Compound 1419] | 0 to 25 |
| Cc1ccc(C)c(C(=O)Nc2cccc3c(=O)n(C)ccc23)c1 [Compound 1420] | 0 to 25 |
| COc1ccc(OC)c(CC(=O)Nc2cccc3c(=O)n(C)ccc23)c1 [Compound 1422] | 0 to 25 |
| Cc1ccc(CC(=O)Nc2cccc3c(=O)n(C)ccc23)cc1 [Compound 1423] | 0 to 25 |
| COc1ccc(C(=O)Nc2cccc3c(=O)n(C)ccc23)cc1C [Compound 1424] | 0 to 25 |
| CC(C)Cc1ccc(C(=O)Nc2cccc3c(=O)n(C)ccc23)cc1 [Compound 1425] | 0 to 25 |
| COCCn1ccc2c(NC(=O)c3ccc(C)cc3C)cccc2c1=O [Compound 1426] | 0 to 25 |
| COCCn1ccc2c(NC(=O)c3cc(C)ccc3C)cccc2c1=O [Compound 1427] | 26 to 50 |
| COCCn1ccc2c(NC(=O)c3cccc(C)c3)cccc2c1=O [Compound 1428] | 0 to 25 |
| CCOc1ccc(C(=O)Nc2cccc3c(=O)n(CCOC)ccc23)cc1 [Compound 1429] | 0 to 25 |
| COCCn1ccc2c(NC(=O)c3ccc(C(C)(C)C)cc3)cccc2c1=O [Compound 1430] | 0 to 25 |
| COCCn1ccc2c(NC(=O)C(C)c3ccccc3)cccc2c1=O (centres unmarked) [Compound 1431] | 0 to 25 |
| COCCn1ccc2c(NC(=O)CCc3ccccc3OC)cccc2c1=O [Compound 1432] | 0 to 25 |
| COCCn1ccc2c(NC(=O)Cc3cccc4ccccc34)cccc2c1=O [Compound 1433] | 0 to 25 |
| COCCn1ccc2c(NC(=O)c3ccc4ccccc4c3)cccc2c1=O [Compound 1434] | 0 to 25 |
| COCCn1ccc2c(NC(=O)Cc3ccccc3F)cccc2c1=O [Compound 1435] | 0 to 25 |
| COCCn1ccc2c(NC(=O)Cc3ccccc3Cl)cccc2c1=O [Compound 1436] | 0 to 25 |

| Compound | inhibition [%] |
| --- | --- |
| COCCn1ccc2c(NC(=O)Cc3ccccc3OC)cccc2c1=O [Compound 1437] | 0 to 25 |
| COCCn1ccc2c(NC(=O)Cc3ccccc3C)cccc2c1=O [Compound 1438] | 26 to 50 |
| COCCn1ccc2c(NC(=O)Cc3cccc(OC)c3)cccc2c1=O [Compound 1439] | 0 to 25 |
| COCCn1ccc2c(NC(=O)c3cc(C)ccc3Cl)cccc2c1=O [Compound 1440] | 0 to 25 |
| COCCn1ccc2c(NC(=O)c3cc(Cl)ccc3C)cccc2c1=O [Compound 1441] | 0 to 25 |
| O=C(Nc1cccc2c(=O)n(Cc3cccnc3)ccc12)c1cc(Cl)ccc1Cl [Compound 1442] | 0 to 25 |
| O=C(Nc1cccc2c(=O)n(Cc3cccnc3)ccc12)c1cc(Cl)cc(Cl)c1 [Compound 1443] | 0 to 25 |
| CCOc1ccc(C(=O)Nc2cccc3c(=O)n(Cc4cccnc4)ccc23)cc1 [Compound 1444] | 0 to 25 |
| CC(C)(C)c1ccc(C(=O)Nc2cccc3c(=O)n(Cc4cccnc4)ccc23)cc1 [Compound 1446] | 0 to 25 |
| O=C(Nc1cccc2c(=O)n(Cc3cccnc3)ccc12)c1cccc2ccccc12 [Compound 1447] | 0 to 25 |
| O=C(Nc1cccc2c(=O)n(Cc3cccnc3)ccc12)c1ccc2ccccc2c1 [Compound 1448] | 0 to 25 |
| O=C(Cc1ccccc1F)Nc1cccc2c(=O)n(Cc3cccnc3)ccc12 [Compound 1449] | 26 to 50 |
| CCOc1ccc(CC(=O)Nc2cccc3c(=O)n(Cc4cccnc4)ccc23)cc1 [Compound 1450] | 0 to 25 |
| Cc1ccc(C(=O)Nc2cccc3c(=O)n(Cc4cccnc4)ccc23)cc1Cl [Compound 1451] | 0 to 25 |
| Cc1cc(Cl)ccc1C(=O)Nc1cccc2c(=O)n(Cc3cccnc3)ccc12 [Compound 1452] | 0 to 25 |
| O=C(Cc1csc2ccccc12)Nc1cccc2c(=O)n(Cc3cccnc3)ccc12 [Compound 1453] | 0 to 25 |
| Cc1cc(C(=O)Nc2cccc3c(=O)n(Cc4cccnc4)ccc23)ccc1F [Compound 1454] | 0 to 25 |
